Test results from patent US20240041042A1, “1-(PYRIDYL)-5-AZINYLPYRAZOLE DERIVATIVES, AND THEIR USE FOR CONTROL OF UNDESIRED PLANT GROWTH” (Bayer Aktiengesellschaft, priority 2020, published 2024).
Like-named read-outs stand apart in the source and are kept apart here.

Columns and labels:
Assay type in all cases: in vivo
[1] = system: Digitaria sanguinalis (DIGSA); assay: Post-emergence herbicidal action against DIGSA; conditions: visual rating about 3 weeks after treatment
Protocol: Seeds of monocotyledonous and dicotyledonous weeds and crop plants are placed in sandy loam in plastic or organic planting pots, covered with soil and cultivated in a greenhouse under controlled growth conditions. 2 to 3 weeks after sowing, the test plants are treated at the one-leaf stage. The compounds of the invention, formulated in the form of wettable powders (WP) or as emulsion concentrates (EC), are then sprayed onto the green parts of the plants as aqueous suspension or emulsion with addition of 0.5% additive at a water application rate of 600 l/ha (converted). After the test plants have been kept in the greenhouse under optimum growth conditions for about 3 weeks, the activity of the preparations is rated visually in comparison to untreated controls. For example, 100% activity=the plants have died, 0% activity=like control plants.
Tables B1 to B13 below show the effects of selected compounds of the general formula (I) according to Table 1 on various harmful plants and at an application rate corresponding to 320 g/ha or lower, which were obtained by the experimental procedure mentioned above. The appendices “a”, “b” and “c” give differentiation by dosage used with otherwise the same harmful plants tested.

[2] = system: Amaranthus retroflexus (AMARE); assay: Post-emergence herbicidal action against AMARE
Summary of the method: (§1)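 Post-emergence greenhouse spray, one-leaf stage, 600 l/ha water plus 0.5% additive; WP or EC formulations; application rates 320 g/ha or lower. Visual % damage vs untreated controls at ~3 weeks.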

Viola tricolor (VIOTR) = assay: Post-emergence herbicidal action against VIOTR
Summary of the method: as §1

Zea mays (ZEAMX) = conditions: 20 g/ha, ZEAMX, effect in comparison to untreated controls
Summary of the method: (§2)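 Test crops were treated 2 to 3 weeks after sowing, once they reached one leaf, by spraying compound in water with 0.5% additive at 600 l/ha. Visual scoring compared them with untreated controls roughly 3 weeks on, and appendices a, b and c denote different doses.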

[3] = system: Pharbitis purpurea (PHBPU); assay: Post-emergence herbicidal action against PHBPU
Summary of the method: as §1

[4] = system: Matricaria inodora (MATIN); assay: Post-emergence herbicidal action against MATIN
Summary of the method: as §1

[5] = system: Verconica persica (VERPE); assay: Post-emergence herbicidal action against VERPE
Summary of the method: as §1

[6] = system: Echinochloa crus-galli (ECHCG); assay: Post-emergence herbicidal action against ECHCG
Summary of the method: as §1

Setaria viridis (SETVI) = assay: Post-emergence herbicidal action against SETVI
Summary of the method: as §1

[7] = system: Abutilon theophrasti (ABUTH); assay: Post-emergence herbicidal action against ABUTH; conditions: visual rating about 3 weeks after treatment vs untreated controls (100% = plants have died, 0% = like control plants)
Summary of the method: as §1

Avena fatua (AVEFA) = assay: Post-emergence herbicidal action against AVEFA; conditions: visual rating about 3 weeks after treatment
Summary of the method: as §1

Lolium rigidum (LOLRI) = assay: Post-emergence herbicidal action against LOLRI
Summary of the method: as §1

[8] = system: Alopecurus myosuroides (ALOMY); assay: Post-emergence herbicidal action against ALOMY; conditions: visual rating about 3 weeks after treatment vs untreated controls (100% = plants have died, 0% = like control plants)
Summary of the method: as §1

Oryza sativa (ORYSA) = conditions: crop plant compatibility
Summary of the method: as §2

[9] = system: Polygonum convolvulus (POLCO); assay: Post-emergence herbicidal action against POLCO
Summary of the method: as §1

[10] = 80 g/ha, visual rating about 3 weeks after treatment vs untreated controls (100% = plants have died, 0% = like control plants)
[11] = 320 g/ha, visual rating about 3 weeks after treatment
[12] = 20 g/ha, effect vs untreated controls
[13] = 80 g/ha, effect in comparison to untreated controls

| Post-emergence action against ORYSA in % (Oryza sativa (ORYSA); [12]) [%] | Compound | Post-emergence action against DIGSA in % ([1]; 80 g/ha) [%] | Post-emergence action against DIGSA in % ([1]; 320 g/ha) [%] | Post-emergence action against VIOTR in % (Viola tricolor (VIOTR); 80 g/ha) [%] | Post-emergence action against VIOTR in % (Viola tricolor (VIOTR); 320 g/ha) [%] | Post-emergence action against PHBPU in % ([3]; dosage 80 g/ha) [%] | Post-emergence action against PHBPU in % ([3]; dosage 320 g/ha) [%] | Post-emergence action against MATIN in % ([4]; dosage 80 g/ha) [%] | Post-emergence action against MATIN in % ([4]; dosage 320 g/ha) [%] | Post-emergence action against VERPE in % ([5]; 320 g/ha, VERPE) [%] | Post-emergence action against VERPE in % ([5]; dosage 80 g/ha) [%] | Post-emergence action against ECHCG in % ([6]; dosage 80 g/ha) [%] | Post-emergence action against ECHCG in % ([6]; dosage 320 g/ha) [%] | Post-emergence action against SETVI in % (Setaria viridis (SETVI); dosage 80 g/ha) [%] | Post-emergence action against SETVI in % (Setaria viridis (SETVI); dosage 320 g/ha) [%] | Post-emergence action against AVEFA in % (Avena fatua (AVEFA); 320 g/ha) [%] | Post-emergence action against LOLRI in % (Lolium rigidum (LOLRI); dosage 320 g/ha) [%] | Post-emergence action against ALOMY in % ([8]; 320 g/ha) [%] | Post-emergence action against LOLRI in % (Lolium rigidum (LOLRI); dosage 80 g/ha) [%] | Post-emergence action against POLCO in % ([9]; dosage 320 g/ha) [%] | further results |
| --- | --- | --- | --- | --- | --- | --- | --- | --- | --- | --- | --- | --- | --- | --- | --- | --- | --- | --- | --- | --- | --- |
|  | COC(=O)COc1nn(-c2ncccc2F)c(-c2ccc(F)nc2)c1Cl [Example I-304] | 90 | 90 | 80 | 90 | 80 | 90 | 90 | 90 | 90 | 80 | 80 | 90 | 90 | 90 | 90 | 90 | 90 |  |  | Post-emergence action against AMARE in % [2, 10]: 80%; Post-emergence action against AMARE in % [2, 11]: 90%; Post-emergence action against ZEAMX in % (crop plant compatibility) (Zea mays (ZEAMX)): 20%; Post-emergence action against ABUTH in % ([7]; 80 g/ha): 80%; Post-emergence action against ABUTH in % ([7]; 320 g/ha): 90% |
| 0 | COC(=O)[C@@H](C)Oc1nn(-c2ncccc2F)c(-c2cncc(F)c2)c1I [Example I-197] | 90 | 90 | 90 | 90 | 90 | 100 | 80 | 90 | 90 | 90 | 90 | 90 | 90 | 90 | 90 | 90 | 90 | 90 | 90 | Post-emergence action against AMARE in % [2, 10]: 90%; Post-emergence action against AMARE in % [2, 11]: 90%; Post-emergence action against ORYSA in % (Oryza sativa (ORYSA); [13]): 10%; Post-emergence action against ABUTH in % ([7]; 80 g/ha): 90%; Post-emergence action against ABUTH in % ([7]; 320 g/ha): 90%; Post-emergence action against AVEFA in % (Avena fatua (AVEFA); 80 g/ha): 90%; Post-emergence action against POLCO in % ([9]; dosage 80 g/ha): 90%; Post-emergence action against ALOMY in % ([8]; 80 g/ha): 90% |
| 0 | CCOC(=O)[C@@H](C)Oc1nn(-c2nc(F)ccc2F)c(-c2cncc(F)c2)c1C1CC1 [Example I-177] |  | 90 | 100 | 100 | 90 | 90 | 90 | 90 | 100 | 100 | 100 | 100 | 90 | 90 | 90 | 100 | 100 | 100 | 90 | Post-emergence action against AMARE in % [2, 10]: 90%; Post-emergence action against AMARE in % [2, 11]: 90%; Post-emergence action against ABUTH in % ([7]; 80 g/ha): 90%; Post-emergence action against ABUTH in % ([7]; 320 g/ha): 90%; Post-emergence action against AVEFA in % (Avena fatua (AVEFA); 80 g/ha): 90%; Post-emergence action against POLCO in % ([9]; dosage 80 g/ha): 90% |
| 0 | COC(=O)[C@@H](C)Oc1nn(-c2ncccc2F)c(-c2cncc(F)c2)c1C1CC1 [Example I-144] | 90 | 90 | 90 | 90 | 90 | 90 | 90 | 90 | 90 | 90 | 90 | 90 | 90 | 90 | 90 | 90 | 90 | 90 | 80 | Post-emergence action against AMARE in % [2, 10]: 90%; Post-emergence action against AMARE in % [2, 11]: 90%; Post-emergence action against ABUTH in % ([7]; 80 g/ha): 80%; Post-emergence action against ABUTH in % ([7]; 320 g/ha): 90%; Post-emergence action against AVEFA in % (Avena fatua (AVEFA); 80 g/ha): 90%; Post-emergence action against POLCO in % ([9]; dosage 80 g/ha): 80%; Post-emergence action against ALOMY in % ([8]; 80 g/ha): 90% |
| 0 | C[C@@H](Oc1nn(-c2ncccc2F)c(-c2cncc(F)c2)c1C1CC1)C(=O)O [Example I-166] | 90 | 90 | 80 | 80 | 80 | 90 | 80 | 90 | 80 | 80 | 80 | 80 | 90 | 90 | 90 | 90 | 90 | 80 | 80 | Post-emergence action against ORYSA in % (Oryza sativa (ORYSA); [13]): 20%; Post-emergence action against ZEAMX in % (crop plant compatibility) (Zea mays (ZEAMX)): 10%; Post-emergence action against AVEFA in % (Avena fatua (AVEFA); 80 g/ha): 90%; Post-emergence action against POLCO in % ([9]; dosage 80 g/ha): 80%; Post-emergence action against ALOMY in % ([8]; 80 g/ha): 90% |
| 0 | CCOC(=O)[C@@H](C)Oc1nn(-c2ncccc2F)c(-c2cncc(F)c2)c1Br [Example I-227] | 80 | 90 | 90 | 90 | 90 | 100 | 80 | 90 | 90 | 90 | 90 | 100 | 90 | 90 | 90 | 90 | 90 | 80 | 90 | Post-emergence action against AMARE in % [2, 10]: 90%; Post-emergence action against AMARE in % [2, 11]: 90%; Post-emergence action against ABUTH in % ([7]; 80 g/ha): 90%; Post-emergence action against ABUTH in % ([7]; 320 g/ha): 90%; Post-emergence action against AVEFA in % (Avena fatua (AVEFA); 80 g/ha): 90%; Post-emergence action against POLCO in % ([9]; dosage 80 g/ha): 90%; Post-emergence action against ALOMY in % ([8]; 80 g/ha): 80% |
| 0 | COC(=O)C(C)OC(=O)C(C)Oc1nn(-c2ccccn2)c(-c2cncc(F)c2)c1Br (mixture of isomers) [Example I-176] | 80 | 90 |  | 80 |  |  |  | 80 |  |  | 80 | 90 | 80 | 80 |  | 80 | 90 | 80 | 80 | Post-emergence action against ORYSA in % (Oryza sativa (ORYSA); [13]): 10%; Post-emergence action against ABUTH in % ([7]; 320 g/ha): 80%; Post-emergence action against POLCO in % ([9]; dosage 80 g/ha): 80% |
| 10 | COC(=O)[C@@H](C)Oc1nn(-c2ccccn2)c(-c2ccc(F)nc2)c1Br [Example I-252] | 90 | 90 |  | 80 |  | 90 |  | 80 | 80 | 80 | 80 | 90 | 80 | 80 | 80 | 80 | 90 | 80 | 80 | Post-emergence action against ZEAMX in % (crop plant compatibility) (Zea mays (ZEAMX)): 10%; Post-emergence action against AVEFA in % (Avena fatua (AVEFA); 80 g/ha): 80%; Post-emergence action against ALOMY in % ([8]; 80 g/ha): 80% |
